{"source": "patent US7241794B2", "about": "“Nonnucleoside reverse transcriptase inhibitors” (RochePalo Alto LLC, priority 2003, dated 2007)", "data": [{"biological_target": "HIV-1 RT (Human immunodeficiency virus type 1 group M subtype B, UniProt P03366)", "test": "HIV Reverse Transcriptase Assay: Inhibitor IC50 Determination", "type": "biochemical", "details": "purified recombinant enzyme, poly(rA)/oligo(dT)16 template-primer; read-out: IC50(μM) RTI", "experimental": "HIV Reverse Transcriptase Assay: Inhibitor IC50 Determination\nHIV-1 RT assay was carried out in 96-well Millipore MultiScreen MADVNOB50 plates using purified recombinant enzyme and a poly(rA)/oligo(dT)16 template-primer in a total volume of 50 μL. The assay constituents were 50 mM Tris/HCl, 50 mM NaCl, 1 mM EDTA, 6 mM MgCl2, 5 μM dTTP, 0.15 μCi [^3H] dTTP, 5 μg/ml poly (rA) pre annealed to 2.5 μg/ml oligo (dT)16 and a range of inhibitor concentrations in a final concentration of 10% DMSO. Reactions were initiated by adding 4 nM HIV-1 RT and after incubation at 37° C. for 30 min, they were stopped by the addition of 50 μl ice cold 20% TCA and allowed to precipitate at 4° C. for 30 min. The precipitates were collected by applying vacuum to the plate and sequentially washing with 3×200 μl of 10% TCA and 2×200 μl 70% EtOH. Finally, the plates were dried and radioactivity counted in a Packard TopCounter after the addition of 25 μl scintillation fluid per well. IC50'swere calculated by plotting % inhibition versus log10 inhibitor concentrations. Representative IC50 data has been included in Table 2.", "units": {"IC50": "µM"}, "values": [{"smiles": "CCc1c(CO)nn(CC)c1Oc1cc(Cl)cc(Cl)c1", "note": "[Cpd 17, [5-(3,5-Dichloro-phenoxy)-1,4-diethyl-1H-pyrazol-3-yl]-methanol]", "IC50": 1.66}, {"smiles": "CCc1c(CCN)nn(C(C)C)c1Oc1cc(Cl)cc(Cl)c1", "note": "[Cpd 48, 2-[5-(3,5-Dichloro-phenoxy)-4-ethyl-1-isopropyl-1H-pyrazol-3-yl]-ethylamine]", "IC50": 1.07}, {"smiles": "CCc1c(CCO)nn(C(C)C)c1Oc1cc(Cl)cc(Cl)c1", "note": "[Cpd 36, 2-[5-(3,5-Dichloro-phenoxy)-4-ethyl-1-isopropyl-1H-pyrazol-3-yl]-ethanol]", "IC50": 0.0383}, {"smiles": "CCc1c(CNC=O)nn(C(C)C)c1Oc1cc(Cl)cc(Cl)c1", "note": "[Cpd 40, N-[5-(3,5-Dichloro-phenoxy)-4-ethyl-1-isopropyl-1H-pyrazol-3-ylmethyl]-formamide]", "IC50": 0.648}, {"smiles": "CCCc1c(CO)nn(CC)c1Oc1cc(Cl)cc(Cl)c1", "note": "[Cpd 22, [5-(3,5-Dichloro-phenoxy)-1-ethyl-4-propyl-1H-pyrazol-3-yl]-methanol]", "IC50": 1.56}]}, {"tested_on": "HXB2-strain of HIV in MT4 cells", "test": "Antiviral assay: protection of HIV-infected MT4 cells from cell death (MTT)", "type": "cell-based", "details": "Human immunodeficiency virus 1, 120 h, MT4 cells infected with HXB2-strain of HIV, 5 days", "experimental": "Anti-HIV antiviral activity was assessed using an adaptation of the method of Pauwels et al. {Pauwels et al., 1988, J Virol Methods 20:309-321 }. The method is based on the ability of compounds to protect HIV-infected T lymphoblastoid cells (MT4 cells) from cell-death mediated by the infection. The endpoint of the assay was calculated as the concentration of compound at which the cell viability of the culture was preserved by 50% (‘50% inhibitory concentration’, IC50). The cell viability of a culture was determined by the uptake of soluble, yellow 3-[4,5-dimethylthiazol-2-yl]-2,5-diphenyltetrazolium bromide (MTT) and its reduction to a purple insoluble formazan salt. After solubilization, spectrophotometric methods were employed to measure the amount of formazan product. […]\nA fresh solution of 5 mg/mL MTT was prepared in 0.01 M phosphate buffered saline, pH 7.2 and 20 microliters added to each culture. […] When the formazan deposit was fully solubilized by further mixing, the absorbance (OD) of the cultures was measured at 540 nm and 690 nm wavelength (690 nm readings were used as blanks for artifacts between wells). The percent protection for each treated culture was then calculated from the equation: […]", "units": {"IC50": "µM"}, "values": [{"smiles": "CCc1c(CO)nn(CC)c1Oc1cc(Cl)cc(Cl)c1", "note": "[Cpd 17, [5-(3,5-Dichloro-phenoxy)-1,4-diethyl-1H-pyrazol-3-yl]-methanol]", "IC50": 0.0401}]}, {"tested_on": "not given", "test": "not given", "details": "not given", "units": {"melting point": "°C"}, "values": [{"smiles": "CCc1c(CC(=O)Nc2ccccc2)nn(C(C)C)c1Oc1cc(Cl)cc(Cl)c1", "note": "[Cpd 87, 2-[5-(3,5-Dichloro-phenoxy)-4-ethyl-1-isopropyl-1H-pyrazol-3-yl]-N-phenyl-acetamide]", "melting point": "118.9 to 120.9"}, {"smiles": "CCn1nc(CCO)c(Cc2ccncc2)c1Oc1cc(Cl)cc(Cl)c1", "note": "[Cpd 85, 2-[5-(3,5-Dichloro-phenoxy)-1-ethyl-4-pyridin-4-ylmethyl-1H-pyrazol-3-yl]-ethanol]", "melting point": "103 to 105.8"}, {"smiles": "CCc1c(Cc2ncc[nH]2)nn(CC)c1Oc1cc(Cl)cc(Cl)c1", "note": "[Cpd 88, 5-(3,5-Dichloro-phenoxy)-1,4-diethyl-3-(1H-imidazol-2-ylmethyl)-1H-pyrazole]", "melting point": "145 to 148"}, {"smiles": "CCc1c(CC(=O)Nc2ccccc2)nn(CC)c1Oc1cc(Cl)cc(Cl)c1", "note": "[Cpd 86, 2-[5-(3,5-Dichloro-phenoxy)-1,4-iethyl-1H-pyrazol-3-yl]-N-phenyl-acetamide]", "melting point": "112.2 to 115.9"}, {"smiles": "CCc1c(Cc2cnc[nH]2)nn(CC)c1Oc1cc(Cl)cc(Cl)c1", "note": "[Cpd 90, 5-(3,5-Dichloro-phenoxy)-1,4-diethyl-3-(3H-imidazol-4-ylmethyl)-1H-pyrazole]", "melting point": "142 to 145.2"}]}]}
